Source: ChEMBL document CHEMBL1124819, “1,9-Alkano-bridged 2,3,4,5-tetrahydro-1H-3-benzazepines with affinity for the alpha 2-adrenoceptor and the 5-HT1A receptor” (J Med Chem, 1990)

Experiments:
[1] = biological target: T1, Adrenergic receptor alpha-2 (Rattus norvegicus, UniProt P22086+P19328+P22909); experiment: Binding affinity against alpha-2 adrenergic receptor in rat cerebral cortical membrane using [3H]yohimbine as radioligand.; assay type: cell membranes
T1 sequence (P22086 whole entry): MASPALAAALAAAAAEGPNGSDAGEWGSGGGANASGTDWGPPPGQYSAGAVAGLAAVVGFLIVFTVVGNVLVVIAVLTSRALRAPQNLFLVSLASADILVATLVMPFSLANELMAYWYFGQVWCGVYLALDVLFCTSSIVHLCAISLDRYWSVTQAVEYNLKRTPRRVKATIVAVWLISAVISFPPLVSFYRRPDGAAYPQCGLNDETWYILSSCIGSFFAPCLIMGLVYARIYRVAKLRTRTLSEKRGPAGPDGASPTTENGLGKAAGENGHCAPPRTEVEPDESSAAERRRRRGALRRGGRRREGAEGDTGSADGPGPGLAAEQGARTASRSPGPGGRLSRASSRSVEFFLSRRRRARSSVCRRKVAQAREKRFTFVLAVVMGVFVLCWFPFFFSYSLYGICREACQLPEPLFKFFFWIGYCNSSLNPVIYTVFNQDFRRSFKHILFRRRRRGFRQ
T1 sequence (P19328 whole entry): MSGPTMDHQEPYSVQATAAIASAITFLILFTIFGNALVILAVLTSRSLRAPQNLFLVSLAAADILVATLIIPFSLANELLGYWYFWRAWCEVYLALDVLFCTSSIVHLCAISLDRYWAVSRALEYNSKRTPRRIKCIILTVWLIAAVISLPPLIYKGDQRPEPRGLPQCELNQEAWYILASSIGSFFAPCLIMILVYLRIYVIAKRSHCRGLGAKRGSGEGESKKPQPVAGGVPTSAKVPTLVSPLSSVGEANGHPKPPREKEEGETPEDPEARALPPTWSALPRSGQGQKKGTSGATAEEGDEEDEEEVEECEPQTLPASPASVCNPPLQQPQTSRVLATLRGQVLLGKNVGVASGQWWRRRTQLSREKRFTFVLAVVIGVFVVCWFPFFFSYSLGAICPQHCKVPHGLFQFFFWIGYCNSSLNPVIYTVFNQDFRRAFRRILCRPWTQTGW
T1 sequence (P22909 whole entry): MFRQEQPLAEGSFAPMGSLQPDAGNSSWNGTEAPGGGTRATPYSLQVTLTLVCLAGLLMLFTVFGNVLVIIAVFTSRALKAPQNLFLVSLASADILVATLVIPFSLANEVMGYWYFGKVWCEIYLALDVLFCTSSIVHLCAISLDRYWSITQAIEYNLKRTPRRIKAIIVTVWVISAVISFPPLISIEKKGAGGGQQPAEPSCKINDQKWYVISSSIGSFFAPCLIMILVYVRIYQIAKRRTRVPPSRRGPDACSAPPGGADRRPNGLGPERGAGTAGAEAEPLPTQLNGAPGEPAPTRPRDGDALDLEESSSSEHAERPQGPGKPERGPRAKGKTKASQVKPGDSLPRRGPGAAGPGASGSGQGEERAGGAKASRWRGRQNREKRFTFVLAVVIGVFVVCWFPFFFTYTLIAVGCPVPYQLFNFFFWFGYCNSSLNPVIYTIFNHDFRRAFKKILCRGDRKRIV

[2] = biological target: T2, 5-hydroxytryptamine receptor 1A (Rattus norvegicus, UniProt P19327); experiment: Binding affinity against 5-hydroxytryptamine 1A receptor in rat cerebral cortical membrane using [3H]-8-OH-DPAT as radioligand.; assay type: cell membranes
T2 sequence (P19327 whole entry): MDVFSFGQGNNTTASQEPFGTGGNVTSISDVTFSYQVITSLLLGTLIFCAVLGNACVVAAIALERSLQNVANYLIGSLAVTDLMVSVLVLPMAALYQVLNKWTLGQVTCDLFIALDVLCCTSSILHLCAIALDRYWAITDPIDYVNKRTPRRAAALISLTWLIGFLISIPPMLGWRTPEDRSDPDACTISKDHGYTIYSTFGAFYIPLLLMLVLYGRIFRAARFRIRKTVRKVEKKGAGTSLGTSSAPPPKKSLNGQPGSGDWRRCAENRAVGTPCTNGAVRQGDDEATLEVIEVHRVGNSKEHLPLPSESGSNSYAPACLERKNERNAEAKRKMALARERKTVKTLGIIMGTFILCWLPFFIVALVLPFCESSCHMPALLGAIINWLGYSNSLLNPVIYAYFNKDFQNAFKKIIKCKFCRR

SMILES | Log Ki [1] | Ki [2]
Br.CN1CCc2cccc3c2C(CC3)C1 (stereo not given) | -6.6 | 15.8 nM
Br.CN1CCc2c(Cl)ccc3c2C(CC3)C1 (stereo not given) | -8.1 | 25.1 nM
Br.COc1ccc2c3c1CCN(C)CC3CC2 (stereo not given) | -6.9 | 100 nM
Br.CN1CCc2c(Cl)ccc3[nH]cc(c23)C1 | -6.8 | 31.6 nM
Br.CN1CCc2ccc(Cl)c3c2C(CCCC3)C1 (stereo not given) | -6.2 | 5010 nM
Cl.O=C1CC2(CCCC2)CC(=O)N1CCCCN1CCc2cccc3c2C(CCC3)C1 (stereo not given) | -5.9 | 39.8 nM
Cl.c1ccc(CCN2CCc3cccc4c3C(CCC4)C2)cc1 (stereo not given) | -6.2 | 794 nM
C=CCN1CCc2c(OC)ccc3c2C(CCC3)C1.Cl (stereo not given) | -6 | 12.6 nM
CCCN1CCc2cccc3c2C(CCC3)C1.Cl (stereo not given) | -6 | 50.1 nM
CCN1CCc2cccc3c2C(CCC3)C1.Cl (stereo not given) | -6.2 | 50.1 nM
C=CCOc1ccc2c3c1CCN(C)CC3CCC2.Cl (stereo not given) | -7.5 | 631 nM
CN1CCc2c(O)ccc3c2C(CCC3)C1.Cl (stereo not given) | -6.2 | 316 nM
COc1ccc2c3c1CCN(C)CC3CCC2.Cl (stereo not given) | -6.8 | 25.1 nM
COc1ccc2c3c1CN(C)CC3CCC2.Cl (stereo not given) | -6.8 | 200 nM
COc1ccc2c3c1CN(C)CCC3CCC2.Cl (stereo not given) | -5.9 | 6310 nM
CN1CCc2c[nH]c3cccc(c23)C1.Cl | -6 | 1260 nM
COc1ccc2c3c1CCN(C)C3CCC2 (stereo not given) |  | 3160 nM
CN1CCc2cccc3c2C(CCC3)C1.Cl (stereo not given) | -5.9 | 50.1 nM
CN1CCc2cccc3c2[C@H](CCC3)C1.Cl | -5.6 | 31.6 nM
O=C1CC2(CCCC2)CC(=O)N1CCCCN1CCc2ccccc2CC1 |  | 25.1 nM

SMILES | Log Ki [1] | Ki [2]
CN1CCc2cccc3c2C(CCCC3)C1.Cl (stereo not given) | -5.9 | 398 nM
C=CCN1CCc2cccc3c2C(CCC3)C1.Cl (stereo not given) | -6.1 | 20 nM
CN1CCc2cccc3c2[C@@H](CCC3)C1.Cl | -6.4 | 63.1 nM
Cl.c1cc2c3c(c1)CCNCC3CCC2 (stereo not given) | -5.9 | 200 nM
CN1CCc2cccc(Cl)c2CC1 | -8.1 | 100 nM
Br.CN1CCc2cccc3[nH]cc(c23)C1 | -6.3 | 100 nM
O=C1CC2(CCCC2)CC(=O)N1CCCCN1CCc2cccc(Cl)c2CC1 |  | 5.01 nM
CN1CCc2ccc(Cl)c3c2C(CC3)C1 (stereo not given) | -6.8 | 25.1 nM
C=CCN1CCc2c(Cl)ccc3c2C(CCC3)C1 (stereo not given) | -6.1 | 7.94 nM
CN1CCc2c(Cl)ccc3c2C(CCCC3)C1 (stereo not given) | -6.5 | 79.4 nM
CN1CCc2ccc(Cl)c3c2[C@@H](CCC3)C1 | -6.4 | 126 nM
CN1CCc2c(Cl)ccc3c2[C@@H](CCC3)C1 | -7 | 20 nM
O=C1CC2(CCCC2)CC(=O)N1CCCCN1CCc2c(Cl)ccc3c2C(CCC3)C1 (stereo not given) | -5.5 | 7.94 nM
CN1CCc2c(Cl)ccc3c2C(CCC3)C1 (stereo not given) | -6.9 | 10 nM
CN1CCc2c(Cl)ccc3c2[C@H](CCC3)C1 | -6.6 | 6.31 nM
CCN1CCc2c(Cl)ccc3c2C(CCC3)C1 (stereo not given) | -6.5 | 15.8 nM
CN1CCc2ccc(Cl)c3c2[C@H](CCC3)C1 | -5.8 | 50.1 nM
CCCN1CCc2c(Cl)ccc3c2C(CCC3)C1 (stereo not given) | -6.4 | 31.6 nM
CN1CCc2ccc(Cl)c3c2C(CCC3)C1 (stereo not given) | -6 | 79.4 nM
